“Also recorded” adds a separate entry of the source. Marks after values point to notes of the source that are not given here.
Columns and labels:
[1] = test system: patients with advanced solid tumours; test: Phase I study of olaparib capsules plus PLD; assay type: in vivo
[2] = continuous dosing, ref Mateo et al, 2013; cited from earlier work
[3] = all olaparib cohorts + PLD 40 mg m^−2, Total (n=44)
[4] = olaparib 50 mg bid 7 day + PLD 40 mg m^−2 (n=3)
[5] = olaparib 100 mg bid 7 day + PLD 40 mg m^−2 (n=3)
[6] = olaparib 100 mg bid 28 day + PLD 40 mg m^−2 (n=4)
[7] = olaparib 200 mg bid 7 day + PLD 40 mg m^−2 (n=3)
[8] = olaparib 200 mg bid 28 day + PLD 40 mg m^−2 (n=7)
[9] = olaparib 400 mg bid 7 day + PLD 40 mg m^−2 (n=12)
[10] = olaparib 400 mg bid 28 day + PLD 40 mg m^−2 (n=12)
[11] = olaparib + PLD, all cohorts (n=2)
[12] = olaparib + PLD, all cohorts, n=44

SMILES: O=C(c1cc(Cc2n[nH]c(=O)c3ccccc23)ccc1F)N1CCN(C(=O)C2CC2)CC1 [olaparib]
- Anorexia, patients with grade ⩾3 AE [1, 3]: 2 (5) n (%)
- Anorexia, patients with treatment-related AE [1, 3]: 12 (27) n (%)
- Asthenia, patients with grade ⩾3 AE [1, 3]: 1 (2) n (%)
- Asthenia, patients with treatment-related AE [1, 3]: 21 (48) n (%)
- Decreased neutrophil count, patients with grade ⩾3 AE [1, 3]: 9 (20) n (%)
- Decreased neutrophil count, patients with treatment-related AE [1, 3]: 13 (30) n (%)
- Nausea, patients with grade ⩾3 AE [1, 3]: 5 (11) n (%)
- Nausea, patients with treatment-related AE [1, 3]: 28 (64) n (%)
- PPES, patients with grade ⩾3 AE [1, 3]: 1 (2) n (%)
- PPES, patients with treatment-related AE [1, 3]: 11 (25) n (%)
- Stomatitis, patients with grade ⩾3 AE [1, 3]: 7 (16) n (%)
- Stomatitis, patients with treatment-related AE [1, 3]: 32 (73) n (%)
- Vomiting, patients with grade ⩾3 AE [1, 3]: 1 (2) n (%)
- Vomiting, patients with treatment-related AE [1, 3]: 13 (30) n (%)
- Asthenia, patients with treatment-related AE [1, 4]: 2 n
- Decreased neutrophil count, patients with grade ⩾3 AE [1, 4]: 2 n
- Decreased neutrophil count, patients with treatment-related AE [1, 4]: 2 n
- Nausea, patients with treatment-related AE [1, 4]: 3 n
- Stomatitis, patients with treatment-related AE [1, 4]: 3 ^b n
- Asthenia, patients with treatment-related AE [1, 5]: 1 n
- Decreased neutrophil count, patients with grade ⩾3 AE [1, 5]: 3 n
- Decreased neutrophil count, patients with treatment-related AE [1, 5]: 3 n
- Nausea, patients with grade ⩾3 AE [1, 5]: 1 n
- Nausea, patients with treatment-related AE [1, 5]: 2 n
- Stomatitis, patients with grade ⩾3 AE [1, 5]: 2 ^c n
- Stomatitis, patients with treatment-related AE [1, 5]: 3 n
- Vomiting, patients with treatment-related AE [1, 5]: 1 n
- Anorexia, patients with grade ⩾3 AE [1, 6]: 1 n
- Anorexia, patients with treatment-related AE [1, 6]: 1 n
- Asthenia, patients with treatment-related AE [1, 6]: 2 n
- Decreased neutrophil count, patients with grade ⩾3 AE [1, 6]: 1 n
- Decreased neutrophil count, patients with treatment-related AE [1, 6]: 2 n
- Nausea, patients with treatment-related AE [1, 6]: 2 n
- Stomatitis, patients with treatment-related AE [1, 6]: 2 n
- Asthenia, patients with treatment-related AE [1, 7]: 2 n
- Decreased neutrophil count, patients with treatment-related AE [1, 7]: 1 n
- Nausea, patients with treatment-related AE [1, 7]: 2 n
- PPES, patients with treatment-related AE [1, 7]: 1 n
- Stomatitis, patients with treatment-related AE [1, 7]: 2 n
- Anorexia, patients with grade ⩾3 AE [1, 8]: 1 n
- Anorexia, patients with treatment-related AE [1, 8]: 3 n
- Asthenia, patients with treatment-related AE [1, 8]: 2 n
- Decreased neutrophil count, patients with grade ⩾3 AE [1, 8]: 1 n
- Decreased neutrophil count, patients with treatment-related AE [1, 8]: 1 n
- Nausea, patients with treatment-related AE [1, 8]: 3 n
- PPES, patients with treatment-related AE [1, 8]: 2 n
- Stomatitis, patients with grade ⩾3 AE [1, 8]: 1 n
- Stomatitis, patients with treatment-related AE [1, 8]: 5 n
- Vomiting, patients with treatment-related AE [1, 8]: 3 n
- Anorexia, patients with treatment-related AE [1, 9]: 4 n
- Asthenia, patients with grade ⩾3 AE [1, 9]: 1 n
- Asthenia, patients with treatment-related AE [1, 9]: 6 n
- Decreased neutrophil count, patients with grade ⩾3 AE [1, 9]: 1 n
- Decreased neutrophil count, patients with treatment-related AE [1, 9]: 2 n
- Nausea, patients with grade ⩾3 AE [1, 9]: 4 n
- Nausea, patients with treatment-related AE [1, 9]: 8 n
- PPES, patients with treatment-related AE [1, 9]: 4 n
- Stomatitis, patients with grade ⩾3 AE [1, 9]: 2 n
- Stomatitis, patients with treatment-related AE [1, 9]: 6 n
- Vomiting, patients with grade ⩾3 AE [1, 9]: 1 n
- Vomiting, patients with treatment-related AE [1, 9]: 6 n
- Anorexia, patients with treatment-related AE [1, 10]: 4 n
- Asthenia, patients with treatment-related AE [1, 10]: 6 n
- Decreased neutrophil count, patients with grade ⩾3 AE [1, 10]: 1 n
- Decreased neutrophil count, patients with treatment-related AE [1, 10]: 2 n
- Nausea, patients with treatment-related AE [1, 10]: 8 n
- PPES, patients with grade ⩾3 AE [1, 10]: 1 n
- PPES, patients with treatment-related AE [1, 10]: 4 n
- Stomatitis, patients with grade ⩾3 AE [1, 10]: 2 n
- Stomatitis, patients with treatment-related AE [1, 10]: 11 n
- Vomiting, patients with treatment-related AE [1, 10]: 3 n
- patients with alterations in neutrophil count ([1]; olaparib + PLD, all cohorts): 30%
- Grade ⩾3 haematologic alterations: haemoglobin [1, 11]: 5%
- Grade ⩾3 haematologic alterations: white blood cells [1, 11]: 5%
- Grade ⩾3 haematologic alterations: platelets ([1]; olaparib + PLD, all cohorts (n=3)): 7%
- alterations in neutrophil count reported as AEs [1, 12]: 13 n
- overall incidence of CTCAE grade ⩾3 events [1, 12]: 61%
- patients discontinued/withdrawn because of treatment-related AEs [1, 12]: seven
- patients who died during the study [1, 12]: Five
- patients with treatment-related serious AEs [1, 12]: five
- patients with serious AEs ([1]; olaparib + PLD, all cohorts, n=44 (12 patients)): 27%
- patients with serious AEs of pneumonitis ([1]; olaparib + PLD, 100 mg 28-day, 200 mg 28-day and 400 mg 7-day cohorts): three
- MTD of olaparib with PLD ([1]; up to continuous olaparib 400 mg bid + PLD 40 mg m^−2): not reached; also recorded: could not be determined
- recommended dose of the olaparib tablet formulation [2]: 300 mg bid
